Experimental data from patent US11612604B2, “Methods of treating cancer with PLK4 inhibitors” (LUDWIG INSTITUTE FOR CANCER RESEARCH LTD, priority 2017, dated 2023).

target: T1, PLK4 (Homo sapiens, UniProt O00444); test: Activity (IC50) of the Table 1 compounds as PLK4 inhibitors; format: biochemical; conditions: Table 1, IC50 class
T1 sequence (O00444 1-970): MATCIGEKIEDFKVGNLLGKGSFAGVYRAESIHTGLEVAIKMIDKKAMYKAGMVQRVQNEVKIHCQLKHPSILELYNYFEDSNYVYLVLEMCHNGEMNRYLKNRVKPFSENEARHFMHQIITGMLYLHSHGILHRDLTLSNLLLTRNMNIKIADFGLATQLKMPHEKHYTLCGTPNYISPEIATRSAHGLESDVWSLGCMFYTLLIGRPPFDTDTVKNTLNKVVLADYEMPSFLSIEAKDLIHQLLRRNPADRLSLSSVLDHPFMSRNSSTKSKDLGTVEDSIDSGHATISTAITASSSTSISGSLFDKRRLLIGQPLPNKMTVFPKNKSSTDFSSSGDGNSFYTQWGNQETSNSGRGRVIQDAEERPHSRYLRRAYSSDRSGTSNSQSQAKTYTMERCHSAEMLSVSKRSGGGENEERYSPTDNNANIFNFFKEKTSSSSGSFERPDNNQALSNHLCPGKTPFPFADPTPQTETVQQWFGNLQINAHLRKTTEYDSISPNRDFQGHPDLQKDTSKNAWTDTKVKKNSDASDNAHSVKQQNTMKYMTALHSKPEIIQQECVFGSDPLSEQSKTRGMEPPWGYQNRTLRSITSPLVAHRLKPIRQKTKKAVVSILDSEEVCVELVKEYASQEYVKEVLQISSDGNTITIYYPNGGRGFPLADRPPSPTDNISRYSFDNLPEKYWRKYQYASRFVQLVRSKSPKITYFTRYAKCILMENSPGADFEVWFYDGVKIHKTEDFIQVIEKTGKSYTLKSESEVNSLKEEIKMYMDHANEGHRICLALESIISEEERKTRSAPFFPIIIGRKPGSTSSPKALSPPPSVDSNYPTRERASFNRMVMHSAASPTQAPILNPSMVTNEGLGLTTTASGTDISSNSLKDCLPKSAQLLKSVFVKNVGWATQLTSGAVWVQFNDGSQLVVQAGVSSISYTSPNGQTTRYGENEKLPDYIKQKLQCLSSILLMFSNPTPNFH

IC50 [nM]	SMILES
< 100	COc1c(Nc2cc(C)[nH]n2)nc(Sc2ccc(NC(=O)C3CC3)cc2)nc1N1CCCCC1
< 100	COc1c(Nc2cc(C)[nH]n2)nc(Sc2ccc(NC(C)=O)cc2)nc1N1CCN(CC(=O)N(C)C)CC1
< 100	COc1c(Nc2cc(C)[nH]n2)nc(Sc2ccc(S(=O)(=O)Cc3ccccc3Cl)cc2)nc1N1CCN(CCN(C)C)CC1
< 100	COc1c(Nc2cc(C)[nH]n2)nc(Sc2ccc(S(=O)(=O)Cc3cccc([N+](=O)[O-])c3)cc2)nc1N1CCO[C@@H](C)C1
< 100	COc1c(Nc2cc(C)[nH]n2)nc(Sc2ccc(S(=O)(=O)Cc3ccccc3)cc2)nc1N1CCO[C@H](C)C1
< 100	COc1c(Nc2cc(C)[nH]n2)nc(Sc2ccc(NC(=O)C3CC3)cc2)nc1N1CCN(CCN(C)C)CC1
< 100	CCS(=O)(=O)c1ccc(Sc2nc(Nc3cc(C)[nH]n3)c(OC)c(N3CCN(CCN4CCN(C)CC4)CC3)n2)cc1
< 100	COc1c(Nc2cc(C)[nH]n2)nc(Sc2ccc(S(=O)(=O)Cc3ccccc3-c3ccccc3)cc2)nc1N1CCN(CCN(C)C)CC1
< 100	COc1c(Nc2cc(C)[nH]n2)nc(Sc2ccc(NC(C)=O)cc2)nc1N1CCC(CCN2CCOCC2)CC1
< 100	CC(=O)Nc1ccc(Sc2nc(Nc3cc(C)[nH]n3)c(C)c(N3CCN(CCN4CCOCC4)CC3)n2)cc1
< 100	COc1ccc(CS(=O)(=O)c2ccc(Sc3nc(Nc4cc(C)[nH]n4)c(OC)c(N4CCN(CCN(C)C)CC4)n3)cc2)cc1
< 100	COc1c(Nc2cc(C)[nH]n2)nc(Sc2ccc(S(=O)(=O)Cc3cccc(C(=O)N(C)C)c3)cc2)nc1N1CCN(CCN(C)C)CC1
< 100	COc1c(Nc2cc(C)[nH]n2)nc(Sc2ccc(S(=O)(=O)Cc3cccc(N(C)C)c3)cc2)nc1N1CCN(CCN(C)C)CC1
< 100	COc1c(Nc2cc(C)[nH]n2)nc(Sc2ccc(S(=O)(=O)Cc3ccccc3)cc2)nc1N1CCC(CCN2CCN(C)CC2)CC1
< 100	COc1c(Nc2cc(C)[nH]n2)nc(Sc2ccc(NC(C)=O)cc2)nc1N1CCN(CC(=O)N2CCOCC2)CC1
< 100	COc1c(Nc2cc(C)[nH]n2)nc(Sc2ccc(S(C)(=O)=O)cc2)nc1N1CCN(CCN2CCN(C)CC2)CC1
< 100	COc1c(Nc2cc(C)[nH]n2)nc(Sc2ccc(NC(C)=O)cc2)nc1N1CCN(CCNC(C)=O)CC1

IC50 [nM]	SMILES
< 100	COc1c(Nc2cc(C)[nH]n2)nc(Sc2ccc(NC(C)=O)cc2)nc1N1CCN(CCNC(N)=O)CC1
< 100	COc1ccccc1CS(=O)(=O)c1ccc(Sc2nc(Nc3cc(C)[nH]n3)c(OC)c(N3CCN(CCN(C)C)CC3)n2)cc1
< 100	COc1c(Nc2cc(C)[nH]n2)nc(Sc2ccc(S(=O)(=O)Cc3nccs3)cc2)nc1N1CCN(CCN(C)C)CC1
< 100	COc1c(Nc2cc(C)[nH]n2)nc(Sc2ccc(NC(C)=O)cc2)nc1N1CCN(CCN(C)OC)CC1
< 100	COc1c(Nc2cc(C)[nH]n2)nc(Sc2ccc(S(=O)(=O)C(C)(C)c3cccc([N+](=O)[O-])c3F)cc2F)nc1N1CCN(C)CC1
< 100	COc1c(Nc2cc(C)[nH]n2)nc(Sc2ccc(NC(=O)C3CC3)cc2)nc1N1CCN(C(C)C)CC1
< 100	CCCS(=O)(=O)c1ccc(Sc2nc(Cc3cc(C)[nH]n3)c(OC)c(N3CCN(CCN(C)C)CC3)n2)cc1
< 100	COc1c(Nc2cc(C)[nH]n2)nc(Sc2ccc(NC(C)=O)cc2)nc1N1CCN(C)CC1
< 100	CNC(=O)c1ccc(Sc2nc(Nc3cc(C)[nH]n3)c(OC)c(N3CCN(CCN(C)C)CC3)n2)cc1
< 100	COc1c(Nc2cc(C)[nH]n2)nc(Sc2ccc(S(=O)(=O)Cc3ccccc3)cc2)nc1N(C)C
< 100	CCOc1c(Nc2cc(C)[nH]n2)nc(Sc2ccc(S(=O)(=O)CC)cc2)nc1N1CCC(CCN(C)C)CC1
< 100	CCN1CCN(c2nc(Sc3ccc(NC(=O)C4CC4)cc3)nc(Nc3cc(C)[nH]n3)c2OC)CC1
< 100	COc1c(Nc2cc(C)[nH]n2)nc(Sc2ccc(NC(C)=O)cc2)nc1N1CCN(CCN2CCCC2)CC1
< 100	COCCN1CCN(c2nc(Sc3ccc(NC(=O)C4CCCC4)cc3)nc(Nc3cc(C)[nH]n3)c2OC)CC1
< 100	COc1c(Nc2cc(C)[nH]n2)nc(Sc2ccc(S(=O)(=O)Cc3cccc(F)c3F)cc2)nc1N1CCN(CCN(C)C)CC1
< 100	COc1c(Nc2cc(C)[nH]n2)nc(Sc2ccc(S(=O)(=O)Cc3ccccc3C)cc2)nc1N1CCN(CCN(C)C)CC1

Further lines, the compound ahead of its results:

SMILES	IC50 [nM]
CC(=O)Nc1ccc(Sc2nc(Nc3cc(C)[nH]n3)c(C)c(C3CCN(CCN(C)C)CC3)n2)cc1	< 100
COc1c(Nc2cc(C)[nH]n2)nc(Sc2ccc(NC(C)=O)cc2)nc1N1CCC(O)CC1C (centres unmarked)	< 100
COc1c(Nc2cc(C)[nH]n2)nc(Sc2ccc(S(=O)(=O)C(C)(C)c3c(F)c(F)c(F)c(F)c3F)cc2F)nc1N1CCC(CCN(C)C)CC1	< 100
COc1c(Nc2cc(C)[nH]n2)nc(Sc2ccc(S(=O)(=O)C(C)(C)c3c(F)c(F)cc(F)c3F)cc2F)nc1N1CCNCC1	< 100
COCCN(C)c1nc(Sc2ccc(NC(=O)C3CC3)cc2)nc(Nc2cc(C)[nH]n2)c1C	< 100
COc1c(Nc2cc(C)[nH]n2)nc(Sc2ccc(S(=O)(=O)C(C)(C)c3cccc([N+](=O)[O-])c3F)cc2F)nc1N1CCCC(N(C)C)C1 (centres unmarked)	< 100
COc1c(Nc2cc(C)[nH]n2)nc(Sc2ccc(NC(C)=O)cc2)nc1C1CCN(CCN(C)C)CC1	100 to 1000
Cc1cc(Nc2nc(Sc3ccc(NC(=O)C4CC4)cc3)nc(N3CCC(O)CC3)c2C)n[nH]1	< 100
COc1c(Nc2cc(C)[nH]n2)nc(Sc2ccc(NC(C)=O)nc2)nc1N1CCOCC1	< 100
COc1c(Nc2cc(C)[nH]n2)nc(Sc2ccc(C(=O)Cc3cccc([N+](=O)[O-])c3F)cc2F)nc1N1CCOCC1	< 100
CC(=O)Nc1ccc(Sc2nc(Nc3cc(C)[nH]n3)c(C)c(N3CCN(C)CC3)n2)cc1	< 100
COc1c(Nc2cc(C)[nH]n2)nc(Sc2ccc(S(=O)(=O)C(C)(C)c3cccc([N+](=O)[O-])c3F)cc2F)nc1N1CCN(CCN(C)C)CC1	< 100
Cc1cc(Nc2nc(Sc3ccc(NC(=O)C4CC4)cc3)nc(N(C)C)c2C)n[nH]1	< 100
COc1c(Nc2cc(C)[nH]n2)nc(Sc2cccc(NC(C)=O)c2)nc1N1CCOCC1	< 100
COc1c(Nc2cc(C)[nH]n2)nc(Sc2ccc(S(=O)(=O)C(C)(C)c3c(F)c(F)cc(F)c3F)cc2F)nc1N1CCC(NC(C)=O)CC1	< 100
Cc1cc(Nc2nc(Sc3ccc(NC(=O)C4CCCC4)cc3)nc(N(C)C)c2C)n[nH]1	< 100
COCC(=O)N1CCN(c2nc(Sc3ccccc3)nc(Nc3cc(C)[nH]n3)c2C)CC1	< 100
COc1c(Nc2cc(C)[nH]n2)nc(Sc2ccc(NC(C)=O)cc2)nc1C1=CCNCC1	< 100

SMILES	IC50 [nM]
CC(=O)Nc1ccc(Sc2nc(Nc3cc(C)[nH]n3)c(C)c(N(CCO)C(C)C)n2)cc1	< 100
COc1c(Nc2cc(C)[nH]n2)nc(Sc2ccc(S(=O)(=O)c3cccc([N+](=O)[O-])c3F)cc2F)nc1N1CCOCC1	< 100
CCS(=O)(=O)c1ccc(Sc2nc(C)c(OC)c(Nc3cc(C)[nH]n3)n2)cc1	< 100
COc1c(Nc2cc(C)[nH]n2)nc(Sc2ccc(C(=O)Oc3cccc([N+](=O)[O-])c3F)cc2F)nc1N1CCOCC1	< 100
CC(=O)Nc1ccc(Sc2nc(Nc3cc(C)[nH]n3)c(Cl)c(N3CCN(C)CC3)n2)cc1	< 100
CSc1nc(Nc2cc(C)[nH]n2)c(C)c(N2CCN(CCN(C)C)CC2)n1	< 100
COc1c(Nc2cc(C)[nH]n2)nc(Sc2ccc(S(=O)(=O)C(C)(C)c3cccc([N+](=O)[O-])c3F)cc2F)nc1N1CCC(C(=O)N(C)C)CC1	< 100
CCN(CC)c1nc(Sc2ccc(NC(C)=O)cc2)nc(Nc2cc(C)[nH]n2)c1OC	< 100
COc1c(Nc2cc(C)[nH]n2)nc(Sc2ccc(NC(C)=O)cc2)nc1N1CCN(CCN(C)C)C(C)C1 (centres unmarked)	< 100
COc1c(Nc2cc(C)[nH]n2)nc(Sc2ccc(S(=O)(=O)Nc3cccc([N+](=O)[O-])c3)cc2F)nc1N1CCOCC1	< 100
COc1c(Nc2cc(C)[nH]n2)nc(Sc2ccc(NC(C)=O)cc2)nc1C1=CCN(CC(=O)N(C)C)CC1	< 100
COc1c(Cc2cc(C)[nH]n2)nc(Sc2ccc(S(=O)(=O)Cc3cccc(F)c3F)cc2F)nc1N1CCOC[C@@H]1C	< 100
COc1c(Nc2cc(C)[nH]n2)nc(Sc2ccc(S(=O)(=O)Cc3c(F)c(F)cc(Cl)c3F)cc2F)nc1N1CCOCC1	< 100
Cc1cc(Nc2nc(Sc3ccc([N+](=O)[O-])cc3)nc3c2CCC32CCNCC2)n[nH]1	100 to 1000
CCN(c1nc(Sc2ccc(NC(C)=O)cc2)nc(Nc2cc(C)[nH]n2)c1C)C(C)C	< 100
Cc1cc(Nc2nc(Sc3ccc(NC(=O)C4CC4)cc3)nc(NCCN(C)C)c2C)n[nH]1	< 100
COc1c(Nc2cc(C)[nH]n2)nc(Sc2ccc(S(=O)(=O)C(F)c3cccc(C#N)c3F)cc2F)nc1N1CCOCC1 (centres unmarked)	< 100
